Reference: patent US10471088B2 (GNOSIS SPA, priority 2006, dated 2019)
“And” between values parts separate entries of the source, which are not always exact repeats. Equal values may be shown once.

How the values were obtained:
[1] = Analysis of starting material lots (SAMe salts, NADH) prior to / after mixing with calcium oxide, t = 0 and storage at 20° C. for 21 days; format: physicochemical; conditions: for residual moisture content: starting material; for permanent removal of the moisture content: mixture with calcium oxide stored for 21 days at 20° C.
[2] = Accelerated stability (stress test 5 days at 53° C.) of starting material lots prior to / after mixing with calcium oxide; format: physicochemical; conditions: for % S,S (stress test) / Moisture content % K.F. (stress test) / SAMe titre % (stress test) / Total impurities % (stress test): 5 days at 53° C.; for permanent removal of the moisture content: mixture with calcium oxide after the stress test at 53° C. for 5 days
[3] = after mixing with calcium oxide
[4] = prior to mixing with calcium oxide

Row | residual moisture content [1] | permanent removal of the moisture content [2] | permanent removal of the moisture content [1] | Moisture content % K.F. t = 21 days at 20° C. [1, 4] | Compound | % S,S (stress test) [2, 3] | Moisture content % K.F. (stress test) [2, 3] | SAMe titre % (stress test) [2, 3] | Total impurities % (stress test) [2, 3] | % S,S (stress test) [2, 4] | Moisture content % K.F. (stress test) [2, 4] | SAMe titre % (stress test) [2, 4] | Total impurities % (stress test) [2, 4] | % S,S t = 0 [1, 3] | Moisture content % K.F. t = 0 [1, 3] | SAMe titre % t = 0 [1, 3] | Total impurities % t = 0 [1, 3] | Moisture content % K.F. t = 21 days at 20° C. [1, 3] | % S,S t = 0 [1, 4] | Moisture content % K.F. t = 0 [1, 4] | SAMe titre % t = 0 [1, 4] | further results
1 | 1-1.5 % K.F. | – | – | – | C[S+](CC[C@H](N)C(=O)[O-])C[C@H]1O[C@@H](n2cnc3c(N)ncnc32)[C@H](O)[C@@H]1O (some centres unmarked) [SAMe, S-adenosyl methionine] | – | – | – | – | – | – | – | – | – | – | – | – | – | – | – | – | –
2 | 5-7 % K.F. | approximately 60% | approximately 40% | 6.34% and 6.87% and 5.76% and 6.32% | NC(=O)C1=CN([C@@H]2O[C@H](COP(=O)(O)OP(=O)(O)OC[C@H]3O[C@@H](n4cnc5c(N)ncnc54)[C@H](O)[C@@H]3O)[C@@H](O)[C@H]2O)C=CC1 [NADH] | – | 3.23% and 3.54% and 3.10% and 3.49% and 3.45% | – | 2.67% and 3.14% and 3.02% and 2.45% and 3.54% | – | 6.23% and 6.54% and 5.00% and 6.09% and 6.05% | – | 8.55% and 7.34% and 7.02% and 7.17% and 7.54% | – | 6.44% and 7.23% and 6.87% and 6.21% and 6.33% | – | – | 4.01% and 4.39% and 3.98% and 3.20% and 4.32% | – | 6.66% and 7.09% and 5.94% and 6.45% and 6.38% | – | NADH (sodium salt) titre % t = 0 (stress test) [2, 3]: 80.56% and 82.56% and 82.49% and 81.19% and 82.34%; NADH (sodium salt) titre % t = 0 (stress test) [2, 4]: 83.11% and 84.58% and 83.99% and 82.19% and 83.84%; NADH (sodium salt) titre % t = 0 ([1]; after mixing with 10% of calcium oxide): 83.93 (*) % and 84.23 (*) % and 83.95 (*) % and 84.53 (*) % and 85.32 (*) %; NADH (sodium salt) titre % t = 0 [1, 4]: 92.73% and 92.23% and 92.45% and 92.43% and 91.98%
3 | – | approximately 60% | approximately 40% | 1.99% and 2.02% and 2.03% and 2.31% | S-adenosyl methionine-1,4-butene disulphonate | 71.89% and 70.94% and 70.34% and 70.02% and 71.32% | 0.81% and 0.88% and 0.78% and 0.87% and 0.93% | 50.04% and 50.00% and 50.01% and 49.89% | 2.13% and 1.35% and 2.03% and 1.98% and 2.00% | 59.49% and 58.98% and 59.43% and 60.02% and 60.32% | 1.96% and 1.93% and 2.09% and 2.21% and 2.00% | 51.72% and 50.79% and 50.94% and 50.93% and 51.03% | 4.63% and 4.47% and 4.06% and 4.23% and 4.05% | 84.54% and 85.25% and 84.21% and 85.02% and 83.49% | 1.80% and 1.84% and 1.94% and 1.89% and 1.87% | 50.34% and 50.08% and 50.01% and 49.78% and 50.12% | 0.57% and 0.53% and 0.49% and 0.50% | 1.38% and 1.40% and 1.33% and 1.45% and 1.27% | 84.82% and 85.34% and 84.58% and 83.89% | 1.89% and 1.94% and 2.03% and 2.01% and 1.98% | 52.02% and 51.78% and 51.34% and 51.54% and 52.34% | Total impurities % t = 0 [1, 4]: 0.67% and 0.64% and 0.44% and 0.56% and 0.45%

Row | Compound | residual moisture content [1] | permanent removal of the moisture content [2] | permanent removal of the moisture content [1] | Moisture content % K.F. t = 21 days at 20° C. [1, 4] | % S,S (stress test) [2, 3] | Moisture content % K.F. (stress test) [2, 3] | SAMe titre % (stress test) [2, 3] | Total impurities % (stress test) [2, 3] | % S,S (stress test) [2, 4] | Moisture content % K.F. (stress test) [2, 4] | SAMe titre % (stress test) [2, 4] | Total impurities % (stress test) [2, 4] | % S,S t = 0 [1, 3] | Moisture content % K.F. t = 0 [1, 3] | SAMe titre % t = 0 [1, 3] | Total impurities % t = 0 [1, 3] | Moisture content % K.F. t = 21 days at 20° C. [1, 3] | % S,S t = 0 [1, 4] | Moisture content % K.F. t = 0 [1, 4] | SAMe titre % t = 0 [1, 4] | further results
4 | C[S+](CC[C@H](N)C(=O)O)C[C@H]1O[C@@H](n2cnc3c(N)ncnc32)[C@H](O)[C@@H]1O.Cc1ccc(S(=O)(=O)[O-])cc1 (some centres unmarked) [S-adenosyl methionine paratoluene sulphonate] | – | approximately 60% | approximately 40% | 1.09% and 1.12% and 1.13% and 1.05% and 1.03% | 65.79% and 67.25% and 66.47% and 65.43% and 66.56% | 0.35% and 0.38% and 0.43% and 0.41% and 0.39% | 49.98% and 49.87% and 50.09% and 50.00% and 49.81% | 2.89% and 3.02% and 3.17% and 2.78% and 2.65% | 55.79% and 55.28% and 56.21% and 56.31% and 56.12% | 0.99% and 1.00% and 1.09% and 1.05% and 1.03% | 49.58% and 49.99% and 51.19% and 50.84% and 50.11% | 4.34% and 5.02% and 5.17% and 5.54% and 4.55% | 79.99% and 81.23% and 80.67% and 80.32% and 80.11% | 1.04% and 0.95% and 0.98% and 1.16% and 1.00% | 50.23% and 50.19% and 50.22% and 50.02% and 50.16% | 0.94% and 1.04% and 0.66% and 0.73% and 1.03% | 0.59% and 0.61% and 0.63% and 0.55% and 0.70% | 79.82% and 81.54% and 80.87% and 80.02% and 80.21% | 1.09% and 1.04% and 1.15% and 1.08% and 1.06% | 52.23% and 52.29% and 52.96% and 51.98% and 52.76% | Total impurities % t = 0 [1, 4]: 0.94% and 1.04% and 0.66% and 0.73% and 1.03%
